Measured values from patent EP2567959B1, “6-(4-HYDROXY-PHENYL)-3-STYRYL-1H-PYRAZOLO[3,4-B]PYRIDINE-4-CARBOXYLIC ACID AMIDE DERIVATIVES AS KINASE INHIBITORS” (SANOFI, priority 2011, dated 2013).

Target: T1, human full-length recombinant PKC βII (Homo sapiens, UniProt P05771)
T1 construct: Active human full-length recombinant PKC βII; purchased Invitrogen GmbH, Darmstadt, Germany
Assay: Determination of PKC βII inhibition (Caliper mobility-shift kinase assay, phosphorylation of fluorescein peptide substrate)
Type: biochemical
Conditions: 1 h; final compound concentration 1.14 µM (±0.15 µM); 60 min incubation at 32 °C
Description: Determination of PKC βII inhibition
PKC βII inhibition was determined according to the following protocol:
Active human full-length recombinant PKC βII and the peptide substrate, Fluorescein-RFARKGSLRQKNV, were purchased from Invitrogen GmbH, Darmstadt, Germany. Adenosine-5'-triphosphate (ATP), bovine serum albumine (BSA), dimethylsulphoxide (DMSO), 4-(2-hydroxyethyl)piperazine-1-ethanesulfonic acid (Hepes), Triton X-100, 1,2-Dioleoyl-sn-glycerol (DAG), L-α-Phosphatidyl-L-serine (PS), calcium chloride (CaCl2), and Pluronic F-68 were purchased from Sigma-Aldrich, Munich, Germany. Magnesium chloride, 1 M sodium hydroxide solution, 1M hydrochloric acid solution and EDTA were obtained from Merck Biosciences, Darmstadt, Germany.
Test compounds were diluted to three times the test concentration in buffer 1 (30 mM Hepes-NaOH, pH 7.4, 0.01 % Pluronic F-68 and 3 % (v/v) DMSO). The PKC βII enzyme was diluted to a concentration of 30 ng/ml in buffer 2 (30 mM Hepes-NaOH, pH 7.4, 15 mM MgCl2,150 µM CaCl2, 150 µg/ml PS, 60 µg/ml DAG, and 0.045 % (w/v) Triton X-100). The peptide substrate and ATP were diluted to concentrations of 3 µM and 120 µM, respectively, in buffer 2. Two µl of the compound solution were mixed with 2 µl of the diluted enzyme in a 384-well small volume microtiter plate (Greiner, Bio-One, Frickenhausen, Germany), and the kinase reaction was initiated by addition of 2 µl of the solution containing peptide substrate and ATP. After 60 min incubation at 32 °C, the reaction was stopped by addition of 20 µl of a solution containing 130 mM Hepes-NaOH, pH 7.4, 0.0195 % (v/v) Brij-35, 6.5 mM EDTA, 0.13 % chip coating reagent 3 (Caliper Lifescience Inc, Hopkinton, MA) and 6.5 % (v/v) DMSO. Phosphorylation of the substrate peptide was then detected on a Caliper 3000 instrument essentially as described by Pommereau et al (J. Biomol. Screening 2004, 9(5), 409-416). Separation conditions were as follows: Pressure -0.8 psi, upstream voltage - 3000 V, downstream voltage -800 V. Positive controls (buffer 1 instead of compound) and negative controls (buffer 1 instead of compound and buffer 2 instead of kinase solution) were run in parallel on each plate. Fractional turnover (R) was determined as the height of the peak of the phosphorylated peptide product divided by the sum of the unphosphorylated substrate and phosphorylated product peak heights. Percent-inhibition values for the test compounds were determined using the formula % Inhibition = 100*(1-(Rcompound-Rnegative control)/(Rpositive control-Rnegative control). [formula]
In the following table % inhibition values observed with example compounds at a final concentration of 1.14 µM (±0.15 µM) are listed: […]

T1 sequence (P05771 1-673 isoform P05771-2): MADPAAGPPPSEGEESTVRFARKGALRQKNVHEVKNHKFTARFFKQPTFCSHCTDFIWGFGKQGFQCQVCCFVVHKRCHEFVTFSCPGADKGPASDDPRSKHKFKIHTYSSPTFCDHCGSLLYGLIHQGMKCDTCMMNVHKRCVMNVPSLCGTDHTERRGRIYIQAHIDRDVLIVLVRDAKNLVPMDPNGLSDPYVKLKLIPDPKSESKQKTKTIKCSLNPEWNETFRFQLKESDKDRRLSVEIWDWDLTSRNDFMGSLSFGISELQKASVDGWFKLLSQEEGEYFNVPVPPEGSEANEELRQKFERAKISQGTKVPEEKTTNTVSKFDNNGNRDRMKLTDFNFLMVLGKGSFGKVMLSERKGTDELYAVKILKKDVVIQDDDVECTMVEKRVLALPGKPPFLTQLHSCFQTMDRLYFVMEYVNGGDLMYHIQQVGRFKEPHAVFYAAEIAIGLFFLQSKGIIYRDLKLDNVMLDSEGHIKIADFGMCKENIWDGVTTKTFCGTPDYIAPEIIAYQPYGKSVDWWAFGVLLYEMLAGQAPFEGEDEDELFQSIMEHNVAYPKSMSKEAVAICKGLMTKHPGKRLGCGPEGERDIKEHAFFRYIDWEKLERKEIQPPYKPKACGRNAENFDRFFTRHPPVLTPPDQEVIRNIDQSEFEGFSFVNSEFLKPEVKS

In the case of `O=C(c1cc(-c2ccc(O)cc2)nc2[nH]nc([C@H]3C[C@@H]3c3ccccc3)c12)N1CCNCC1` (racemic) [Example 18, (±)-[6-(4-Hydroxy-phenyl)-3 trans-(2-phenyl-cyclopropyl)-1 H-pyrazolo[3,4-b]pyridin-4-yl]-piperazin-1-yl-methanone], the inhibition at 1.14 µM was 94%.

Same assay, conditions: final compound concentration 1.14 µM (±0.15 µM); 60 min incubation at 32 °C

Compared with `C[C@H]1CNCCN1C(=O)c1cc(-c2ccc(O)cc2)nc2[nH]nc(/C=C/c3ccccc3)c12` [Example 6, [6-(4-Hydroxy-phenyl)-3-((E)-styryl)-1H-pyrazolo[3,4-b]pyridin-4-yl]-((S)-2-methyl-piperazin-1-yl)-methanone], `CC1(C)CN(C(=O)c2cc(-c3ccc(O)cc3)nc3[nH]nc(/C=C/c4ccccc4)c23)CCN1` [Example 4, (3,3-Dimethyl-piperazin-1-yl)-[6-(4-hydroxy-phenyl)-3-((E)-styryl)-1H-pyrazolo[3,4-b]pyridin-4-yl]-methanone] is higher in inhibition at 1.14 µM: 98% for the first, 99% for the second.

Compared with `Cc1ccc(/C=C/c2n[nH]c3nc(-c4ccc(O)cc4)cc(C(=O)N4CCNCC4)c23)cc1F` [Example 55, [3-[(E)-2-(3-Fluoro-4-methyl-phenyl)-vinyl]-6-(4-hydroxy-phenyl)-1H-pyrazolo[3,4-b]pyridin-4-yl]-piperazin-1-yl-methanone], `O=C(c1cc(-c2ccc(O)cc2)nc2[nH]nc(/C=C/c3ccc(F)c(F)c3)c12)N1CCNCC1` [Example 59, [3-[(E)-2-(3,4-Difluoro-phenyl)-vinyl]-6-(4-hydroxy-phenyl)-1H-pyrazolo[3,4-b]pyridin-4-yl]-piperazin-1-yl-methanone] is higher in inhibition at 1.14 µM: 76% for the first, 97% for the second.

Going from `COc1cccc(/C=C/c2n[nH]c3nc(-c4ccc(O)cc4)cc(C(=O)N4CCNCC4)c23)c1` [Example 56, {6-(4-Hydroxy-phenyl)-3-[(E)-2-(3-methoxyphenyl)-vinyl]-1H-pyrazolo[3,4-b]pyridin-4-yl}-piperazin-1-yl-methanone] to `O=C(c1cc(-c2ccc(O)cc2)nc2[nH]nc(/C=C/c3cccc(F)c3)c12)N1CCNCC1` [Example 71, [3-[(E)-2-(3-Fluoro-phenyl)-vinyl]-6-(4-hydroxy-phenyl)-1H-pyrazolo[3,4-b]pyridin-4-yl]-piperazin-1-yl-methanone], the inhibition at 1.14 µM falls from 100% to 96%.

Going from `CN(C)C(=O)c1ccc(/C=C/c2n[nH]c3nc(-c4ccc(O)cc4)cc(C(=O)N4CCNCC4)c23)cc1` [Example 66, 4-{(E)-2-[6-(4-Hydroxy-phenyl)-4-(piperazine-1-carbonyl)-1H-pyrazolo[3,4-b]pyridin-3-yl]-vinyl}-N,N-dimethyl-benzamide] to `CC(=O)c1ccc(/C=C/c2n[nH]c3nc(-c4ccc(O)cc4)cc(C(=O)N4CCNCC4)c23)cc1` [Example 57, 1-(4-{(E)-2-[6-(4-Hydroxy-phenyl)-4-(piperazine-1-carbonyl)-1H-pyrazolo[3,4-b]pyridin-3-yl]-vinyl}-phenyl)-ethanone], the inhibition at 1.14 µM falls from 99% to 98%.

Going from `O=C(c1cc(-c2ccc(O)cc2)nc2[nH]nc(CCC3CCCCC3)c12)N1CCNCC1` [Example 36, [3-(2-cyclohexyl-ethyl)-6-(4-hydroxy-phenyl)-1H-pyrazolo[3,4-b]pyridin-4-yl]-piperazin-1-yl-methanone] to `O=C(c1cc(-c2ccc(O)cc2)nc2[nH]nc(CCc3ccccc3)c12)N1CCNCC1` [Example 17, [6-(4-Hydroxy-phenyl)-3-phenethyl-1H-pyrazolo[3,4-b]pyridin-4-yl]-piperazin-1-yl-methanone], the inhibition at 1.14 µM rises from 81% to 94%.

First: CCC(CC)C(=O)N1CCN(C(=O)c2cc(-c3ccc(O)cc3)nc3[nH]nc(/C=C/c4ccccc4)c23)CC1 [Example 80, 2-Ethyl-1-{4-[6-(4-hydroxy-phenyl)-3-((E)-styryl)-1H-pyra-zolo[3,4-b]pyri-dine-4-carbonyl]-piperazin-1-yl}-butan-1-one]
Second: CC(C)(O)C(=O)N1CCN(C(=O)c2cc(-c3ccc(O)cc3)nc3[nH]nc(/C=C/c4ccccc4)c23)CC1 [Example 86, 2-Hydroxy-1-{4-[6-(4-hydroxy-phenyl)-3-((E)-styryl)-1H-pyra-zolo[3,4-b]pyri-dine-4-carbonyl]-piperazin-1-yl}-2-methyl-propan-1-one]
The inhibition at 1.14 µM of the first is lower: 26% for the first, 93% for the second.

First: CC1(NC(=O)c2cc(-c3ccc(O)cc3)nc3[nH]nc(/C=C/c4ccccc4)c23)CCNCC1 [Example 75, 6-(4-Hydroxy-phenyl)-3-((E)-styryl)-1H-pyra-zolo[3,4-b]-pyridine-4-car-boxylic acid (4-methyl-piperidin-4-yl)-amide]
Second: CN(C)C(=O)CN1CCN(C(=O)c2cc(-c3ccc(O)cc3)nc3[nH]nc(/C=C/c4ccccc4)c23)CC1 [Example 84, 2-{4-[6-(4-Hydroxy-phenyl)-3-((E)-styryl)-1H-pyrazolo[3,4-b]-pyridine-4-carbo-nyl]-piperazin-1-yl}-N,N-dimethyl-acetamide]
The inhibition at 1.14 µM of the first is higher: 93% for the first, 54% for the second.

`COc1ccc(/C=C/c2n[nH]c3nc(-c4ccc(O)cc4)cc(C(=O)N4CCNCC4)c23)cc1C` [Example 73, {6-(4-Hydroxy-phenyl)-3-[(E)-2-(4-methoxy-3-methyl-phenyl)-vinyl]-1H-pyrazolo[3,4-b]pyridin-4-yl}-piperazin-1-yl-methanone] and `Cc1cc(/C=C/c2n[nH]c3nc(-c4ccc(O)cc4)cc(C(=O)N4CCNCC4)c23)ccc1O` [Example 47, [3-[(E)-2-(4-Hydroxy-3-methyl-phenyl)-vinyl]-6-(4-hydroxy-phenyl)-1H-pyrazolo[3,4-b]pyridin-4-yl]-piperazin-1-yl-methanone] are the same in inhibition at 1.14 µM: 98% for the first, 98% for the second.

Going from `CN(C)C(=O)c1cccc(/C=C/c2n[nH]c3nc(-c4ccc(O)cc4)cc(C(=O)N4CCNCC4)c23)c1` [Example 31, 3-{(E)-2-[6-(4-Hydroxy-phenyl)-4-(piperazine-1-carbonyl)-1H-py-razolo[3,4-b]py-ridin-3-yl]-vinyl}-N,N-dimethyl-benzamide] to `CC(C)(C)c1ccc(/C=C/c2n[nH]c3nc(-c4ccc(O)cc4)cc(C(=O)N4CCNCC4)c23)cc1` [Example 54, [3-[(E)-2-(4-tert-Butyl-phenyl)-vinyl]-6-(4-hydroxy-phenyl)-1H-pyrazolo[3,4-b]pyridin-4-yl]-piperazin-1-yl-methanone], the inhibition at 1.14 µM falls from 99% to 95%.

First: O=C(c1cc(-c2ccc(O)cc2)nc2[nH]nc(/C=C/c3cccc(N4CCCCC4)c3)c12)N1CCNCC1 [Example 26, {6-(4-Hydroxy-phenyl)-3-[(E)-2-(3-piperidin-1-yl-phenyl)-vinyl]-1H-pyrazolo[3,4-b]pyridin-4-yl}-piperazin-1-yl-methanone]
Second: O=C(c1cc(-c2ccc(O)cc2)nc2[nH]nc(/C=C/c3ccc(F)cc3Cl)c12)N1CCNCC1 [Example 52, [3-[(E)-2-(2-Chloro-4-fluorophenyl)-vinyl]-6-(4-hydroxy-phenyl)-1H-pyrazolo[3,4-b]pyridin-4-yl]-piperazin-1-yl-methanone]
The inhibition at 1.14 µM of the first is higher: 96% for the first, 91% for the second.

Going from `O=C(CN1CCOCC1)N1CCN(C(=O)c2cc(-c3ccc(O)cc3)nc3[nH]nc(/C=C/c4ccccc4)c23)CC1` [Example 81, 1-{4-[6-(4-Hydroxy-phenyl)-3-((E)-styryl)-1H-pyrazolo[3,4-b]-pyridine-4-car-bonyl]-piperazin-1-yl}-2-mor-pholin-4-yl-ethanone] to `O=C(c1cc(-c2ccc(O)cc2)nc2[nH]nc(/C=C/c3ccc(OC(F)(F)F)cc3)c12)N1CCNCC1` [Example 58, {6-(4-Hydroxyphenyl)-3-[(E)-2-(4-trifluorome-thoxy-phenyl)-vinyl]-1H-pyrazo-lo[3,4-b]pyridin-4-yl}-piperazin-1-yl-methanone], the inhibition at 1.14 µM rises from 45% to 89%.

Compared with `COc1cc(/C=C/c2n[nH]c3nc(-c4ccc(O)cc4)cc(C(=O)N4CCNCC4)c23)cc(OC)c1OC` [Example 62, {6-(4-hydroxy-phenyl)-3-[(E)-2-(3,4,5-trimethoxy-phenyl)-vinyl]-1H-pyrazolo[3,4-b]pyridin-4-yl}-piperazin-1-yl-methanone], `COc1ccc(/C=C/c2n[nH]c3nc(-c4ccc(O)cc4)cc(C(=O)N4CCNCC4)c23)c(OC)c1` [Example 43, [3-[(E)-2-(2,4-Dimethoxyphenyl)-vinyl]-6-(4-hydroxy-phenyl)-1H-pyrazolo[3,4-b]pyridin-4-yl]-piperazin-1-yl-methanone] is lower in inhibition at 1.14 µM: 98% for the first, 87% for the second.
